Counter-ions that a name gives are not always drawn.
What was measured:
[1] = tested on: HEL cells (human acute myelocytic leukemia cell lines); assay: cells; details: read-out: Cell-Growth Inhibition Test: HEL Cells IC50 (nM);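 also: viable cell count by CellTiter-Glo 2.0 luminescence after 5 days of culture at 37 °C, growth expressed relative to DMSO-only wells as 100%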
[2] = tested on: NCI-H146 cells (human small-cell lung cancer cell lines); assay: Cell-growth inhibition test: NCI-H146 cells; assay type: cell-based; details: Homo sapiens, NCI-H146, read-out: Cell-Growth Inhibition Test: NCI-H146 Cells IC50 (nM)
Procedure: Under the following conditions, an in vitro cell-growth inhibition test was performed with respect to HEL cells (human acute myelocytic leukemia cell lines), NCI-H1417 cells (human small-cell lung cancer cell lines), and NCI-H146 cells (human small-cell lung cancer cell lines).
The cells with the compound of the present invention or with dimethylsulfoxide alone were cultured at 37° C. in a 5% carbon-dioxide-containing incubator for 5 days (HEL cells) or 10 days (NCI-H1417 cells and NCI-H146 cells). After culture, the plate was allowed to stand at room temperature for 30 minutes, and 100 μL of the supernatant was removed from each well to leave 100 μL of the cell culture solution. To each well containing the remaining 100 μL of the cell culture solution, the same amount of CellTiter-Glo 2.0 Assay (Promega, Cat #: G9242) was added. The microplate was shaken with a plate mixer for 1 minute and then allowed to stand in a dark place for 10 minutes. Thereafter, the luminescence intensity of viable cells in each well was measured using a microplate reader (PerkinElmer, EnSpire). […] Cell growth rate (%)=T/C×100 T: The luminescence intensity in a well to which the compound of the present invention was added (count per second) C: The luminescence intensity in a well to which dimethylsulfoxide alone was added (count per second)

[3] = tested on: NCI-H1417 cells (human small-cell lung cancer cell lines); assay: cells; details: NCI-H1417, read-out: Cell-Growth Inhibition Test: NCI-H1417 Cells IC50 (nM);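 also: growth of NCI-H1417 cells over 10 days at 37 °C, read as viable-cell luminescence by CellTiter-Glo 2.0, expressed as % of DMSO-only control wells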

Row | SMILES | IC50 [1] | IC50 [2] | IC50 [3]
1 | CCC(O)(CC)Cn1nnc2cc(-c3ccc(C(=O)N4C5CCC4C(N)C5)cc3-c3ccc(C#N)c(F)c3)c(F)c(F)c21 [Example 214, 5′-((1S,2S,4R)-rel-2-amino-7-azabicyclo[2.2.1]heptane-7-carbonyl)-2′-(1-(2-ethyl-2-hydroxybutyl)-6,7-difluoro-1H-benzo[d][1,2,3]triazol-5-yl)-3-fluoro-[1,1′-biphenyl]-4-carbonitrile-isomer-X] | 0.44 nM | 2.58 nM | 0.47 nM
2 | CCC(O)(CC)Cn1ncc2cc(-c3ccc(C(=O)N4C5CCC4C(N)C5)cc3-c3ccc(C#N)c(F)c3)c(F)cc21 [Example 206, 5′-((1S,2S,4R)-rel-2-amino-7-azabicyclo[2.2.1]heptane-7-carbonyl)-2′-(1-(2-ethyl-2-hydroxybutyl)-6-fluoro-1H-indazol-5-yl)-3-fluoro-[1,1′-biphenyl]-4-carbonitrile-isomer-X] | 0.4 nM | 1.09 nM | 0.95 nM
3 | Cn1ccc2cc(-c3ccc(C(=O)N4[C@@H]5CC[C@H]4C[C@H](N)C5)cc3-c3ccc(C#N)c(F)c3)ccc21 [Example 18] | 3.55 nM | 8.13 nM | 4.73 nM
4 | CC(C)(O)Cc1ccc(-c2ccc(CN3CC[C@H](N)C3)cc2-c2ccc(C#N)c(F)c2)c(F)c1 [Example 291, (S)-5′-((3-aminopyrrolidin-1-yl)methyl)-2″,3-difluoro-4″-(2-hydroxy-2-methylpropyl)-[1,1′:2′,1″-terphenyl]-4-carbonitrile dihydrochloride] | 1.21 nM | 10.4 nM | 4.65 nM
5 | CC(C)(O)Cn1nnc2cc(-c3ccc(C(=O)N4[C@@H]5CC[C@H]4C[C@@H](N)C5)cc3-c3ccc(C#N)c(F)c3)c(F)c(Cl)c21 [Example 211, 5′-((3-endo)-3-amino-8-azabicyclo[3.2.1]octane-8-carbonyl)-2′-(7-chloro-6-fluoro-1-(2-hydroxy-2-methylpropyl)-1H-benzo[d][1,2,3]triazol-5-yl)-3-fluoro-[1,1′-biphenyl]-4-carbonitrile] | 1.41 nM | 1.4 nM | 0.79 nM
6 | Cc1ccc(-c2ccc(C(C)N3C4CCC3C(N)C4)cc2-c2ccc(C#N)c(F)c2)c(F)c1 [Example 292, 5′-(1-((1S,2S,4R)-rel-2-amino-7-azabicyclo[2.2.1]heptan-7-yl)ethyl)-2″,3-difluoro-4″-methyl-[1,1′:2′,1″-terphenyl]-4-carbonitrile-isomer-X dihydrochloride] | 0.91 nM | 10.3 nM | 3.29 nM
7 | Cn1ncc2cc(-c3ccc(C(=O)N4[C@@H]5CC[C@H]4C[C@H](N)C5)cc3-c3ccc(C#N)c(F)c3)c(F)cc21 [Example 24] | 3.56 nM | 4.04 nM | 0.97 nM
8 | CCC(O)(CC)Cn1nnc2cc(-c3ccc(CN4C5CCC4C(N)C5)cc3-c3ccc(C#N)c(F)c3)c(F)c(Cl)c21 [Example 288, 5′-(((1S,2S,4R)-rel-2-amino-7-azabicyclo[2.2.1]heptan-7-yl)methyl)-2′-(7-chloro-1-(2-ethyl-2-hydroxybutyl)-6-fluoro-1H-benzo[d][1,2,3]triazol-5-yl)-3-fluoro-[1,1′-biphenyl]-4-carbonitrile-isomer-X dihydrochloride] | 0.062 nM | 1.29 nM | 0.22 nM
9 | Cc1ccc(-c2ccc(CN3C4CCC3C(N)C4)cc2-c2ccc(C#N)c(F)c2)c(F)c1 [Example 283, 5′-(((1S,2S,4R)-rel-2-amino-7-azabicyclo[2.2.1]heptan-7-yl)methyl)-2″,3-difluoro-4″-methyl-[1,1′:2′,1″-terphenyl]-4-carbonitrile-isomer-X] | 0.79 nM | 11.1 nM | 2.1 nM
10 | CC(C)(O)CC1OCc2cc(-c3ccc(C(=O)N4C5CCC4C(N)C5)cc3-c3ccc(C#N)c(F)c3)c(F)cc21 [Example 226, 5′-((1S,2S,4R)-rel-2-amino-7-azabicyclo[2.2.1]heptane-7-carbonyl)-3-fluoro-2′-(6-fluoro-1-(2-hydroxy-2-methylpropyl)-1,3-dihydroisobenzofuran-5-yl)-[1,1′-biphenyl]-4-carbonitrile-isomer-X] | 2.56 nM | 10.1 nM | 5.36 nM
11 | CC(C)(O)Cc1ccc(-c2ccc(C(=O)N3[C@@H]4CC[C@H]3C[C@@H](N)C4)cc2-c2ccc(C#N)c(F)c2)c(F)c1 [Example 41] | 4.98 nM | 9.76 nM | 6.12 nM
12 | CCC(O)(CC)Cn1nnc2cc(-c3ccc(C(=O)N4[C@@H]5CC[C@H]4C[C@@H](N)C5)cc3-c3ccc(C#N)c(F)c3)c(F)c(Cl)c21 [Example 220, 5′-((3-endo)-3-amino-8-azabicyclo[3.2.1]octane-8-carbonyl)-2′-(7-chloro-1-(2-ethyl-2-hydroxybutyl)-6-fluoro-1H-benzo[d][1,2,3]triazol-5-yl)-3-fluoro-[1,1′-biphenyl]-4-carbonitrile] | 1.09 nM | 1.81 nM | 1.03 nM
13 | Cc1noc2cc(-c3ccc(C(=O)N4C5CCC4C(N)C5)cc3-c3ccc(C#N)c(F)c3)c(F)cc12 [Example 202, 5′-((1S,2S,4R)-rel-2-amino-7-azabicyclo[2.2.1]heptane-7-carbonyl)-3-fluoro-2′-(5-fluoro-3-methylbenzo[d]isoxazol-6-yl)-[1,1′-biphenyl]-4-carbonitrile-isomer-X] | 0.24 nM | 0.73 nM | 0.62 nM
14 | CCC(O)(CC)Cn1nnc2cc(-c3ccc(CN4C5CCC4C(N)C5)cc3-c3ccc(C#N)c(F)c3)c(F)c(F)c21 [Example 293, 5′-(((1S,2S,4R)-rel-2-amino-7-azabicyclo[2.2.1]heptan-7-yl)methyl)-2′-(1-(2-ethyl-2-hydroxybutyl)-6,7-difluoro-1H-benzo[d][1,2,3]triazol-5-yl)-3-fluoro-[1,1′-biphenyl]-4-carbonitrile-isomer-X dihydrochloride] | 0.081 nM | 0.08 nM | 0.22 nM
15 | CC(C)(O)Cn1nnc2cc(-c3ccc(C(=O)N4[C@@H]5CC[C@H]4C[C@@H](N)C5)cc3-c3ccc(C#N)c(F)c3)c(F)c(C(F)F)c21 [Example 250, 5′-((3-endo)-3-amino-8-azabicyclo[3.2.1]octane-8-carbonyl)-2′-(7-(difluoromethyl)-6-fluoro-1-(2-hydroxy-2-methylpropyl)-1H-benzo[d][1,2,3]triazol-5-yl)-3-fluoro-[1,1′-biphenyl]-4-carbonitrile] | 2.36 nM | 9.3 nM | 1.2 nM
16 | N#Cc1ccc(-c2cc(C(=O)N3[C@@H]4CC[C@H]3C[C@@H](N)C4)ccc2-c2cc3nnn(CC4(O)CCC4)c3c(F)c2F)cc1F [Example 256, 5′-((3-endo)-3-amino-8-azabicyclo[3.2.1]octane-8-carbonyl)-2′-(6,7-difluoro-1-((1-hydroxycyclobutyl)methyl)-1H-benzo[d][1,2,3]triazol-5-yl)-3-fluoro-[1,1′-biphenyl]-4-carbonitrile] | 1.31 nM | 2.54 nM | 0.94 nM
17 | CC(C)(O)Cn1ccc2cc(-c3ccc(C(=O)N4[C@@H]5CC[C@H]4C[C@@H](N)C5)cc3-c3ccc(C#N)c(F)c3)c(F)c(F)c21 [Example 183, 5′-((3-endo)-3-amino-8-azabicyclo[3.2.1]octane-8-carbonyl)-2′-(6,7-difluoro-1-(2-hydroxy-2-methylpropyl)-1H-indol-5-yl)-3-fluoro-[1,1′-biphenyl]-4-carbonitrile] | 0.54 nM | 0.25 nM | 1.01 nM
18 | CCC(O)(CC)Cn1nnc2cc(-c3ccc(C(=O)N4C5CCC4C(N)C5)cc3-c3ccc(C#N)c(F)c3)c(F)c(Cl)c21 [Example 218, 5′-((1S,2S,4R)-rel-2-amino-7-azabicyclo[2.2.1]heptane-7-carbonyl)-2′-(7-chloro-1-(2-ethyl-2-hydroxybutyl)-6-fluoro-1H-benzo[d][1,2,3]triazol-5-yl)-3-fluoro-[1,1′-biphenyl]-4-carbonitrile-isomer-X] | 0.22 nM | 0.33 nM | 0.21 nM
19 | Cn1ccc2cc(-c3ccc(C(=O)N4[C@@H]5CC[C@H]4C[C@H](N)C5)cc3-c3ccc(C#N)c(F)c3)c(F)cc21 [Example 23] | 0.73 nM | 9.33 nM | 0.99 nM
20 | Cn1ccc2cc(-c3ccc(C(=O)N4[C@@H]5CC[C@H]4C[C@@H](N)C5)cc3-c3ccc(C#N)c(F)c3)c(F)cc21 [Example 123] | 1.39 nM | 1.39 nM | 3.57 nM
21 | COCCc1ccc(-c2ccc(C(=O)N3[C@@H]4CC[C@H]3C[C@@H](N)C4)cc2-c2ccc(C#N)c(F)c2)c(F)c1 [Example 22] | 3.51 nM | 15 nM | 8.2 nM
22 | CC(C)(O)Cn1nnc2cc(-c3ccc(C(=O)N4C5CCC4C(N)C5)cc3-c3ccc(C#N)c(F)c3)c(F)c(C#N)c21 [Example 247, 5-(5-((1S,2S,4R)-rel-2-amino-7-azabicyclo[2.2.1]heptane-7-carbonyl)-4′-cyano-3′-fluoro-[1,1′-biphenyl]-2-yl)-6-fluoro-1-(2-hydroxy-2-methylpropyl)-1H-benzo[d][1,2,3]triazole-7-carbonitrile-isomer-X] | 3.02 nM | 3.84 nM | 1.4 nM

Source: patent US11479563B2, “Biphenyl compound or salt thereof” (TAIHO PHARMACEUTICAL CO., LTD., priority 2017, dated 2022)
